Experiment [1] has as its target T1, His-GST-TVMV-hRIPK1(1-324) (Homo sapiens, UniProt Q13546).
T1 construct: The coding region of human RIPK1(1-324) flanked by NdeI site at 5′ end; made in house; host or cells: Spodoptera frugiperda (Sf9) insect cells, baculovirus
T1 sequence (Q13546 1-324): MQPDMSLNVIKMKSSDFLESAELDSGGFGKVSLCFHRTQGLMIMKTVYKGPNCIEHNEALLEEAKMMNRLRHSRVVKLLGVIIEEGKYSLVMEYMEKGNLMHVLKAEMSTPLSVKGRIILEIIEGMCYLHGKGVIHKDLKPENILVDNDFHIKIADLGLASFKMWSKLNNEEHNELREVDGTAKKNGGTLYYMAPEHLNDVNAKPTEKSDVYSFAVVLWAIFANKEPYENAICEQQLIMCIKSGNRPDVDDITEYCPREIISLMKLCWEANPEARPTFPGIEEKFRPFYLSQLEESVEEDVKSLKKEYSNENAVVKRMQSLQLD
Put plainly: RIPK1 HTRF Binding Assay.

For experiment [2], the system named is MLKL phosphorylation in HT29-L23 human colorectal adenocarcinoma cells. Put plainly: MLKL Phosphorylation High-Content Assay. In kind it is cell-based. Conditions: Homo sapiens. A digest of the protocol: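 Cells incubated six hours at 37° C., then phospho-MLKL (S358) immunostained overnight at 4° C. and imaged by high-content microscopy. Phosphorylation quantified as mean circ-ring average intensity ratio; IC50 and Ymax from 4-parameter logistic fits.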

Where [3] appears, read: x marks IC50 class 20-200 nM, read-out: RIPK1 HTRF binding 20-200 nM.
[4] abbreviates: x marks IC50 class >200 nM, read-out: pMLKL cell activity >200 nM.
[5] abbreviates: x marks IC50 class <20 nM, read-out: RIPK1 HTRF binding <20 nM.
[6] abbreviates: x marks IC50 class 20-200 nM, read-out: pMLKL cell activity 20-200 nM.
[7] abbreviates: x marks IC50 class <20 nM, read-out: pMLKL cell activity <20 nM.

Each structure is given as a SMILES string. Like-named read-outs stand apart in the source and are kept apart here.

Take `CCOc1ncc(-c2ccn3nc(N)nc3c2)cc1C(=O)NCc1ccccc1SCC(F)(F)F` [Example 265, 5-{2-amino-[1,2,4]triazolo[1,5-a]pyridin-7-yl}-2-ethoxy-N-({2-[(2,2,2-trifluoroethyl)sulfanyl]phenyl}methyl)pyridine-3-carboxamide]: the IC50 in experiment [1] (setting [3]) was 20 to 200 nM; in experiment [2] (setting [4]), over 200 nM.

`Cc1cnc(C(=O)NCCC(C)c2ccccc2)cc1-c1ccn2nc(N)nc2c1` (stereo not shown) [Example 400, 4-(2-amino-[1,2,4]triazolo[1,5-a]pyridin-7-yl)-5-methyl-N-(3-phenylbutyl)picolinamide]: the figures for the IC50 in experiment [1] (setting [5]) and in experiment [2] (setting [6]) were under 20 nM and 20 to 200 nM, respectively.

Take `COc1nc(C)c(-c2ccn3nc(N)nc3c2)cc1C(=O)NCc1ccccc1OCC(F)(F)F` [Example 332, 5-(2-amino-[1,2,4]triazolo[1,5-a]pyridin-7-yl)-2-methoxy-6-methyl-N-(2-(2,2,2-trifluoroethoxy)benzyl)nicotinamide]: the values for the IC50 in experiment [1] (setting [5]) and in experiment [2] (setting [6]) were under 20 nM and 20 to 200 nM, respectively.

Consider `Cc1cnc(-c2ccn3nc(N)nc3c2)nc1C(=O)NCC[C@H](O)c1ccc(Cl)cc1` [Example 410, (S)-2-(2-amino-[1,2,4]triazolo[1,5-a]pyridin-7-yl)-N-(3-(4-chlorophenyl)-3-hydroxypropyl)-5-methylpyrimidine-4-carboxamide], for which the IC50 in experiment [1] (setting [3]) and in experiment [2] (setting [6]) was 20 to 200 nM throughout.

Regarding `CC(C)Oc1ccccc1CNC(=O)c1cc(-c2ccn3nc(N)nc3c2)cnc1N` [Example 55, 2-Amino-5-{2-amino-[1,2,4]triazolo[1,5-a]pyridin-7-yl}-N-{[2-(propan-2-yloxy)phenyl]methyl}pyridine-3-carboxamide], the IC50 is under 20 nM in experiment [1] (setting [5]) and 20 to 200 nM in experiment [2] (setting [6]).

`COc1nc(C)c(-c2ccn3nc(N)nc3c2)cc1C(=O)NCc1cc(F)cc(F)c1O[C@@H]1CCN(C)C1` [Example 359, (R)-5-(2-amino-[1,2,4]-triazolo[1,5-a]pyridin-7-yl)-N-(3,5-difluoro-2-((1-methylpyrrolidin-3-yl)oxy)benzyl)-2-methoxy-6-methylnicotinamide]: the IC50 is 20 to 200 nM in experiment [1] (setting [3]) and over 200 nM in experiment [2] (setting [4]).

`COc1ncc(-c2ccn3nc(N)nc3c2)cc1C(=O)NCc1ccccc1OCC1CC1` [Example 81, 5-{2-Amino-[1,2,4]triazolo[1,5-a]pyridin-7-yl}-N-{[2-(cyclopropylmethoxy)phenyl]methyl}-2-methoxypyridine-3-carboxamide]: the IC50 in experiment [1] (setting [5]) and in experiment [2] (setting [7]) was under 20 nM each time.

`Cc1ncc(C(=O)NCc2cc(F)ccc2OCC2CCCC2)cc1-c1ccn2nc(N)nc2c1` [Example 262, 5-{2-amino-[1,2,4]triazolo[1,5-a]pyridin-7-yl}-N-{[2-(cyclopentylmethoxy)-5-fluorophenyl]methyl}-6-methylpyridine-3-carboxamide]: the IC50 in experiment [1] (setting [5]) was under 20 nM; in experiment [2] (setting [6]) it was 20 to 200 nM.

As to `COc1nc(C)c(-c2ccn3nc(N)nc3c2)cc1C(=O)NCc1ncccc1OCC1CC1` [Example 33, 5-{2-Amino-[1,2,4]triazolo[1,5-a]pyridin-7-yl}-N-{[3-(cyclopropylmethoxy)pyridin-2-yl]methyl}-2-methoxy-6-methylpyridine-3-carboxamide], the IC50 in experiment [1] (setting [5]) was under 20 nM; in experiment [2] (setting [6]), 20 to 200 nM.

As for `Cc1ncc(-c2ccn3nc(N)nc3c2)cc1C(=O)NCc1ccccc1OCC1CCC1` [Example 248, 5-{2-amino-[1,2,4]triazolo[1,5-a]pyridin-7-yl}-N-{[2-(cyclobutylmethoxy)phenyl]methyl}-2-methylpyridine-3-carboxamide], the IC50 in experiment [1] (setting [5]) and in experiment [2] (setting [7]) was under 20 nM throughout.

Turning to `[2H]C([2H])([2H])[C@@H](NC(=O)c1cc(-c2ccn3nc(N)nc3c2)c(C)nc1C)c1cc(C(F)(F)F)ccc1F` [Example 289, (R)-5-(2-amino-[1,2,4]triazolo[1,5-a]pyridin-7-yl)-N-(l-(2-fluoro-5-(trifluoromethyl)phenyl)ethyl-2,2,2-d3)-2,6-dimethylnicotinamide], the values for the IC50 in experiment [1] (setting [5]) and in experiment [2] (setting [6]) were under 20 nM and 20 to 200 nM, respectively.

`COc1ncc(-c2ccn3nc(N)nc3c2)cc1C(=O)NCc1ccccc1OC1CCCC1` [Example 148, 5-{2-amino-[1,2,4]triazolo[1,5-a]pyridin-7-yl}-N-{[2-(cyclopentyloxy)phenyl]methyl}-2-methoxypyridine-3-carboxamide]: the IC50 in experiment [1] (setting [5]) and in experiment [2] (setting [7]) was under 20 nM throughout.

Regarding `Cc1ncc(-c2ccn3nc(N)nc3c2)cc1C(=O)NCc1cc(F)ccc1OCC1CCCC1` [Example 20, 5-{2-Amino-[1,2,4]triazolo[1,5-a]pyridin-7-yl}-N-{[2-(cyclopentylmethoxy)-5-fluorophenyl]methyl}-2-methylpyridine-3-carboxamide], the IC50 was under 20 nM in experiment [1] (setting [5]) and 20 to 200 nM in experiment [2] (setting [6]).

Take `COc1nc(C)c(-c2ccn3nc(N)nc3c2)cc1C(=O)NCc1cccc(OC(F)(F)F)c1` [Example 210, 5-{2-amino-[1,2,4]triazolo[1,5-a]pyridin-7-yl}-2-methoxy-6-methyl-N-{[3-(trifluoromethoxy)phenyl]methyl}pyridine-3-carboxamide]: the IC50 was under 20 nM in experiment [1] (setting [5]) and 20 to 200 nM in experiment [2] (setting [6]).

Consider `[2H]C([2H])([2H])Oc1nc(C)c(-c2ccn3nc(N)nc3c2)cc1C(=O)NCc1cc(F)cc(F)c1OC([2H])([2H])C1CC1` [Example 282, 5-(2-Amino-[1,2,4]triazolo[1,5-a]pyridin-7-yl)-N-(2-(cyclopropylmethoxy-d2)-3,5-difluorobenzyl)-2-(methoxy-d3)-6-methylnicotinamide], for which the IC50 in experiment [1] (setting [5]) and in experiment [2] (setting [7]) was under 20 nM throughout.

As to `Cc1ccc(-c2ccn3nc(N)nc3c2)nc1C(=O)N[C@H](C)c1cc(OC(F)(F)F)ccc1F` [Example 403, (R)-6-(2-amino-[1,2,4]triazolo[1,5-a]pyridin-7-yl)-N-(1-(2-fluoro-5-(trifluoromethoxy)phenyl)ethyl)-3-methylpicolinamide], the IC50 in experiment [1] (setting [5]) was under 20 nM; in experiment [2] (setting [6]), 20 to 200 nM.

Regarding `COc1nc(C)c(-c2ccn3nc(N)nc3c2)cc1C(=O)NCc1c(F)cccc1OCC1CCCC1` [Example 220, 5-{2-amino-[1,2,4]triazolo[1,5-a]pyridin-7-yl}-N-{[2-(cyclopentylmethoxy)-6-fluorophenyl]methyl}-2-methoxy-6-methylpyridine-3-carboxamide], the values for the IC50 in experiment [1] (setting [5]) and in experiment [2] (setting [6]) were under 20 nM and 20 to 200 nM, respectively.

For the molecule `COc1nc(C)c(-c2ccn3nc(N)nc3c2)cc1C(=O)NCc1cccnc1OCC1CCCC1` [Example 8, 5-{2-Amino-[1,2,4]triazolo[1,5-a]pyridin-7-yl}-N-{[2-(cyclopentylmethoxy)pyridin-3-yl]methyl}-2-methoxy-6-methylpyridine-3-carboxamide], the IC50 is under 20 nM in experiment [1] (setting [5]) and 20 to 200 nM in experiment [2] (setting [6]).

On to `Cc1ccc(-c2ccn3nc(N)nc3c2)nc1C(=O)NCC[C@H](O)c1ccc(Cl)cc1` [Example 401, (S)-6-(2-amino-[1,2,4]triazolo[1,5-a]pyridin-7-yl)-N-(3-(4-chlorophenyl)-3-hydroxypropyl)-3-methylpicolinamide], for which the IC50 is under 20 nM in experiment [1] (setting [5]) and 20 to 200 nM in experiment [2] (setting [6]).

With `COc1ncc(-c2ccn3nc(N)nc3c2)cc1C(=O)NCc1cccc(OCC2CCC2)c1` [Example 46, 5-{2-Amino-[1,2,4]triazolo[1,5-a]pyridin-7-yl}-N-{[3-(cyclobutylmethoxy)phenyl]methyl}-2-methoxypyridine-3-carboxamide], the IC50 in experiment [1] (setting [3]) is 20 to 200 nM; in experiment [2] (setting [4]) it was over 200 nM.

(Values after US10913738B2 (BRISTOL-MYERS SQUIBB COMPANY, priority 2017, dated 2021).)
